# ChEMBL document CHEMBL1201862, “PubChem BioAssay data set” (2004)
#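 The compound was tested at five concentrations on cells cultured in 96-well plates, with a 48-hour exposure period. GI50 = concentration required for 50% inhibition of growth.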 Active and inactive are the calls of the source. No stated cut-off is given here; in the data, active = GI50 up to about 1.1 µM and inactive = higher.
# Assays:
# Assay in all cases: DTP human tumour cell line panel, 48 h
# SNB-19 = tested on: SNB-19
# HCC 2998 = tested on: HCC 2998
# Malme-3M = tested on: Malme-3M
# EKVX = tested on: EKVX
# OVCAR-8 = tested on: OVCAR-8
# OVCAR-5 = tested on: OVCAR-5
# SF-295 = tested on: SF-295
# K562 = tested on: K562
# LOX IMVI = tested on: LOX IMVI
# NCI-H23 = tested on: NCI-H23
# COLO 205 = tested on: COLO 205
# CCRF-CEM = tested on: CCRF-CEM
# OVCAR-4 = tested on: OVCAR-4
# HT-29 = tested on: HT-29
# SK-MEL-2 = tested on: SK-MEL-2
# SK-MEL-28 = tested on: SK-MEL-28
# NCI-H226 = tested on: NCI-H226
Structure (SMILES),GI50 (SNB-19),GI50 (HCC 2998),GI50 (Malme-3M),GI50 (EKVX),GI50 (OVCAR-8),GI50 (OVCAR-5),GI50 (SF-295),GI50 (K562),GI50 (LOX IMVI),GI50 (NCI-H23),GI50 (COLO 205),GI50 (CCRF-CEM),GI50 (OVCAR-4),GI50 (HT-29),GI50 (SK-MEL-2),GI50 (SK-MEL-28),GI50 (NCI-H226)
O=C(O)CCC(NC(=O)c1ccccc1)C(=O)O (stereo not given),> 100 µM (inactive),> 100 µM (inactive),> 100 µM (inactive),> 100 µM (inactive),> 100 µM (inactive),> 100 µM (inactive),> 100 µM (inactive),> 100 µM (inactive),> 100 µM (inactive),> 100 µM (inactive),52.1 µM (inactive),> 100 µM (inactive),> 100 µM (inactive),> 100 µM (inactive),> 100 µM (inactive),> 100 µM (inactive),–
COc1ccc(C23c4ccc(OC)cc4CC2(c2ccc([N+](=O)[O-])cc2)Cc2cc(OC)ccc23)cc1 (stereo not given),> 71.4 µM (inactive),–,> 38.2 µM (inactive),> 15.2 µM (inactive),> 36.7 µM (inactive),> 25.9 µM (inactive),–,> 37.6 µM (inactive),> 21.3 µM (inactive),> 26.4 µM (inactive),> 36.2 µM (inactive),> 40.9 µM (inactive),> 25.1 µM (inactive),> 23.3 µM (inactive),> 74.1 µM (inactive),> 17.9 µM (inactive),> 57.1 µM (inactive)
N#Cc1c([N+](=O)[O-])cc(C(F)(F)F)cc1[N+](=O)[O-],18.3 µM (inactive),–,8.2 µM (inactive),18 µM (inactive),2.09 µM (inactive),18.1 µM (inactive),4.74 µM (inactive),2.05 µM (inactive),2.64 µM (inactive),7.94 µM (inactive),4.88 µM (inactive),1.09 µM (active),2.11 µM (inactive),2.96 µM (inactive),18.5 µM (inactive),8.73 µM (inactive),21.6 µM (inactive)
CC(=O)Oc1cc(OC(C)=O)c2cc3c(cc2c1OC(C)=O)C(=O)C1(CCCC1)C3=O,–,21.7 µM (inactive),17.9 µM (inactive),20 µM (inactive),16.4 µM (inactive),–,16.3 µM (inactive),14.7 µM (inactive),14.3 µM (inactive),17.7 µM (inactive),17.4 µM (inactive),–,18.6 µM (inactive),12.2 µM (inactive),–,15.6 µM (inactive),–
COc1ccc(N2C(=O)C(N3C(=O)C=CC3=O)C2C=O)cc1 (stereo not given),> 100 µM (inactive),> 100 µM (inactive),> 100 µM (inactive),> 100 µM (inactive),> 100 µM (inactive),> 100 µM (inactive),> 100 µM (inactive),> 100 µM (inactive),> 100 µM (inactive),> 100 µM (inactive),> 100 µM (inactive),> 100 µM (inactive),–,> 100 µM (inactive),> 100 µM (inactive),> 100 µM (inactive),–
CN(C)CCC(/C=C/c1ccccc1)=N\Nc1ccccc1,3.88 µM (inactive),–,3.07 µM (inactive),2.07 µM (inactive),10.7 µM (inactive),1.98 µM (inactive),0.451 µM (active),0.325 µM (active),0.0493 µM (active),3.97 µM (inactive),1.96 µM (inactive),0.526 µM (active),4.32 µM (inactive),2.97 µM (inactive),–,1.8 µM (inactive),–
CCOC(=O)c1cnc2c(ccc3ncccc32)c1NCCCN(CC)CC,50.1 µM (inactive),> 100 µM (inactive),> 100 µM (inactive),> 100 µM (inactive),–,> 100 µM (inactive),86.7 µM (inactive),27.2 µM (inactive),17.5 µM (inactive),87.9 µM (inactive),70.3 µM (inactive),38.4 µM (inactive),30 µM (inactive),39.1 µM (inactive),> 100 µM (inactive),50 µM (inactive),> 100 µM (inactive)
Cc1ccc(C)c(N2C/C(=N\NC(=O)CC#N)C(c3nc4ccccc4s3)C(=O)C2=O)c1 (stereo not given),> 100 µM (inactive),> 100 µM (inactive),> 100 µM (inactive),> 100 µM (inactive),> 100 µM (inactive),–,> 100 µM (inactive),–,–,> 100 µM (inactive),> 100 µM (inactive),> 100 µM (inactive),> 100 µM (inactive),> 100 µM (inactive),> 100 µM (inactive),> 100 µM (inactive),> 100 µM (inactive)
CCN(CC)CC(=O)N1CCc2c([nH]c3ccccc23)C1c1cccnc1 (stereo not given),> 100 µM (inactive),> 100 µM (inactive),–,> 100 µM (inactive),> 100 µM (inactive),> 100 µM (inactive),> 100 µM (inactive),> 100 µM (inactive),> 100 µM (inactive),> 100 µM (inactive),–,> 100 µM (inactive),> 100 µM (inactive),> 100 µM (inactive),–,> 100 µM (inactive),–
COc1nc(NC2OC(COC(C)=O)C(OC(C)=O)C(OC(C)=O)C2OC(C)=O)c2c(OC(C)=O)cc(=O)oc2n1 (stereo not given),> 100 µM (inactive),> 100 µM (inactive),> 100 µM (inactive),> 100 µM (inactive),> 100 µM (inactive),> 100 µM (inactive),> 100 µM (inactive),> 100 µM (inactive),> 100 µM (inactive),> 100 µM (inactive),> 100 µM (inactive),> 100 µM (inactive),> 100 µM (inactive),> 100 µM (inactive),> 100 µM (inactive),–,> 100 µM (inactive)
CC/C(C)=C1\CCC(CN2CCOCC2)C1=O (stereo not given),47.9 µM (inactive),24.2 µM (inactive),17.7 µM (inactive),18.7 µM (inactive),20.7 µM (inactive),17.5 µM (inactive),> 100 µM (inactive),7.46 µM (inactive),16.4 µM (inactive),13.8 µM (inactive),–,7.91 µM (inactive),17.6 µM (inactive),15.6 µM (inactive),17.8 µM (inactive),17.4 µM (inactive),82.2 µM (inactive)
NC(=O)N/N=C/C(=C/Nc1ccccc1)[N+](=O)[O-],> 100 µM (inactive),> 100 µM (inactive),–,> 100 µM (inactive),> 100 µM (inactive),–,> 100 µM (inactive),> 100 µM (inactive),> 100 µM (inactive),> 100 µM (inactive),> 100 µM (inactive),> 100 µM (inactive),> 100 µM (inactive),> 100 µM (inactive),–,> 100 µM (inactive),–
CN/C=C(\C(=O)c1ccc(OC)c(OC)c1)c1ccc(OC)cc1,17.5 µM (inactive),> 10 µM (inactive),> 10 µM (inactive),27.4 µM (inactive),15 µM (inactive),–,40.1 µM (inactive),6.43 µM (inactive),14.2 µM (inactive),30.3 µM (inactive),17.8 µM (inactive),3.85 µM (inactive),24.5 µM (inactive),16.3 µM (inactive),15.7 µM (inactive),19.5 µM (inactive),11.3 µM (inactive)
O=C(NC1C2CC3CC(C2)CC1C3)c1ccncn1 (stereo not given),> 100 µM (inactive),> 100 µM (inactive),> 100 µM (inactive),> 100 µM (inactive),> 100 µM (inactive),> 100 µM (inactive),> 100 µM (inactive),> 100 µM (inactive),–,> 100 µM (inactive),> 100 µM (inactive),> 100 µM (inactive),> 100 µM (inactive),> 100 µM (inactive),> 100 µM (inactive),> 100 µM (inactive),> 100 µM (inactive)
Cc1cccc(C)c1NC(=O)C1=NC(=S)NC(c2ccccc2)C1c1nc2ccccc2s1 (stereo not given),> 100 µM (inactive),> 100 µM (inactive),> 100 µM (inactive),> 100 µM (inactive),> 100 µM (inactive),–,> 100 µM (inactive),> 100 µM (inactive),–,> 100 µM (inactive),> 100 µM (inactive),> 100 µM (inactive),> 100 µM (inactive),> 100 µM (inactive),> 100 µM (inactive),> 100 µM (inactive),> 100 µM (inactive)
N#CCc1cccc(CC#N)c1Br,> 100 µM (inactive),–,> 100 µM (inactive),> 100 µM (inactive),> 100 µM (inactive),> 100 µM (inactive),> 100 µM (inactive),> 100 µM (inactive),> 100 µM (inactive),> 100 µM (inactive),> 100 µM (inactive),> 100 µM (inactive),> 100 µM (inactive),> 100 µM (inactive),> 100 µM (inactive),–,> 100 µM (inactive)
COc1cc(C[S+]2CCCC2)c(SC)cc1C[S+]1CCCC1,–,> 100 µM (inactive),> 100 µM (inactive),> 100 µM (inactive),> 100 µM (inactive),> 100 µM (inactive),> 100 µM (inactive),> 100 µM (inactive),> 100 µM (inactive),> 100 µM (inactive),> 100 µM (inactive),> 100 µM (inactive),> 100 µM (inactive),> 100 µM (inactive),> 100 µM (inactive),> 100 µM (inactive),> 100 µM (inactive)
CC(=O)Oc1ccccc1 [ACETIC ACID PHENYL ESTER],> 100 µM (inactive),> 10 µM (inactive),> 100 µM (inactive),> 100 µM (inactive),> 100 µM (inactive),> 100 µM (inactive),> 100 µM (inactive),> 100 µM (inactive),> 100 µM (inactive),> 100 µM (inactive),–,> 100 µM (inactive),> 100 µM (inactive),> 100 µM (inactive),> 100 µM (inactive),> 100 µM (inactive),> 100 µM (inactive)
